Data published in patent US20190008779A1, “GEMCABENE COMPOSITIONS AND METHODS OF USE THEREOF” (GEMPHIRE THERAPEUTICS INC., priority 2017, published 2019).
Read-outs that look alike come from different tables or passages of the source.

How the values were obtained:
[1] = biological target: T1, HMG-CoA reductase (Homo sapiens, UniProt P04035); conditions: cited from earlier work
T1 sequence (P04035 1-888): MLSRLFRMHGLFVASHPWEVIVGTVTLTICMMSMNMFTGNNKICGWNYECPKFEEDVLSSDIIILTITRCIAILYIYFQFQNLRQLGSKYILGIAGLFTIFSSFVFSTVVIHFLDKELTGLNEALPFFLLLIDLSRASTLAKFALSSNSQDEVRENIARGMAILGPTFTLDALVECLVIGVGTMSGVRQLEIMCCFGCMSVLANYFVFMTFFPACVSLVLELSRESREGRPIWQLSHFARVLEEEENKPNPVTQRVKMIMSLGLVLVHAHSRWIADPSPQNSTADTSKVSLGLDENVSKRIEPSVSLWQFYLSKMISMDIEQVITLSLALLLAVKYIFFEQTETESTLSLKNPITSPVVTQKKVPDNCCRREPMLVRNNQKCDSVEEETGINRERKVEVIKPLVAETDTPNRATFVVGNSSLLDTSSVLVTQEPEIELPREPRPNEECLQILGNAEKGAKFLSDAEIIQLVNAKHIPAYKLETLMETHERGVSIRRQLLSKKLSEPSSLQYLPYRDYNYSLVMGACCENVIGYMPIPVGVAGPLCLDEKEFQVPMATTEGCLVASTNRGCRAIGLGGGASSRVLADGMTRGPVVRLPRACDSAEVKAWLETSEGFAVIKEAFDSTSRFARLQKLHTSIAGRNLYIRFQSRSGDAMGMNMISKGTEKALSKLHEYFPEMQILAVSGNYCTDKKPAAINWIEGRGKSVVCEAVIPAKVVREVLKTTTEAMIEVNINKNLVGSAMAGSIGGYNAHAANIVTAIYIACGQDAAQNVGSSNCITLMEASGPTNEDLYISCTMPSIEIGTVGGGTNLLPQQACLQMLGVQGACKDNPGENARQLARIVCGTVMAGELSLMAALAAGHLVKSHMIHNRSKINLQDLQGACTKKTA

[2] = Pharmacokinetic analysis after a single oral dose to male dogs (plasma atorvastatin, metabolites, gemcabene); assay type: in vivo, beagle dogs; conditions: administered in the absence of atorvastatin calcium versus with atorvastatin calcium (FIG. 15)
[3] = test system: hypercholesterolemic human subjects; conditions: cited from earlier work
[4] = in vivo; cited from earlier work

For `CC(C)c1c(C(=O)Nc2ccc(O)cc2)c(-c2ccccc2)c(-c2ccc(F)cc2)n1CCC1CC(O)CC(=O)O1` (centres unmarked) [4-hydroxy-atorvastatin lactone], the “pharmacological activity (inhibitory activity on HMG-CoA reductase)” value [1] is given as “pharmacologically inactive”.
For `CC(C)c1c(C(=O)Nc2ccc(O)cc2)c(-c2ccccc2)c(-c2ccc(F)cc2)n1CC[C@@H](O)C[C@@H](O)CC(=O)O` [4-hydroxy-atorvastatin acid], the “pharmacological activity (inhibitory activity on HMG-CoA reductase)” value [1] is listed as “pharmacologically equipotent to parent atorvastatin” and the “pharmacological activity (inhibitory activity on HMG-CoA reductase)” value ([1]; listed as 4-hydroxy-atorvastatin) is listed as “active towards HMG-CoA reductase”.
In the case of `CC(C)c1c(C(=O)Nc2ccccc2O)c(-c2ccccc2)c(-c2ccc(F)cc2)n1CCC(O)CC(O)CC(=O)O` (centres unmarked) [2-hydroxy-atorvastatin acid], the “pharmacological activity (inhibitory activity on HMG-CoA reductase)” value [1] is listed as “pharmacologically equipotent to parent atorvastatin” and the “pharmacological activity (inhibitory activity on HMG-CoA reductase)” value ([1]; listed as 2-hydroxy-atrovastatin) is listed as “active towards HMG-CoA reductase”.
In the case of `CC(C)c1c(C(=O)Nc2ccccc2)c(-c2ccccc2)c(-c2ccc(F)cc2)n1CC[C@@H]1C[C@@H](O)CC(=O)O1` [atorvastatin lactone], the “pharmacological activity (inhibitory activity on HMG-CoA reductase)” value [1] is listed as “pharmacologically inactive”.
In the case of `CC(C)(CCCCOCCCCC(C)(C)C(=O)O)C(=O)O` [gemcabene calcium, 6,6′-oxybis(2,2-dimethylhexanoic acid)], the “pharmacokinetic profile of gemcabene” value [2] is given as “essentially the same”, the triglycerides ([3]; patients having type IIb hyperlipidemia, certain doses with a statin, versus either alone) is given as “surprising ability to lower triglycerides” and the LDL-C levels ([3]; patients on a stable dose of statin not able to reach the target LDL-C goal) is given as “further reduce LDL-C levels”. For the same compound, the “plasma levels of LDL cholesterol (LDL-C)” value ([3]; separate administration with a statin, versus a statin alone) was “significantly reduce”, the fibrinogen ([3]; some doses with a statin, hypercholesterolemic human subjects with elevated fibrinogen levels) was “lower fibrinogen” and the c-reactive protein ([3]; with a statin, versus statin treatment alone) was “reduce c-reactive protein to an extent greater than the statin treatment alone”. For the same compound, the “effect on the pharmacokinetics of simvastatin and atorvastatin” value [4] was “not to significantly affect”.
For `CC(C)c1c(C(=O)Nc2ccccc2O)c(-c2ccccc2)c(-c2ccc(F)cc2)n1CCC1CC(O)CC(=O)O1` (centres unmarked) [2-hydroxy-atorvastatin lactone], the “pharmacological activity (inhibitory activity on HMG-CoA reductase)” value [1] is given as “pharmacologically inactive”.
